The values below come from ChEMBL document CHEMBL5370596, “Wulfenioidins D-N, Structurally Diverse Diterpenoids with Anti-Zika Virus Activity Isolated from Orthosiphon wulfenioides” (J Nat Prod, 2023).

Usually EC50 stands for the concentration needed to bring the measured effect to its halfway point. One may read the CC50 as the concentration giving 50% cytotoxicity.

Structures are written as SMILES. The source made the active and inactive calls. The rule behind the calls is not given here. A value given as a limit tells only on which side of the number the result lay.

The test system of one series is Vero. As to the kind of experiment: (§1) Cytotoxicity against African green monkey Vero cells assessed as reduction in cell viability after 72 hrs by CCK-8 assay. The format is toxicity, cell-based. The note with it: chlorocebus sabaeus, vero, 72 h. (In general: Tetrazolium dyes change colour on reduction, which living cells bring about.)
Series [1] relates to Zika virus. The series is described as follows: Antiviral activity against ZIKV infected in African green monkey Vero cells assessed as inhibition of viral replication incubated for 72 hrs by qRT-PCR analysis. The format is functional, organism-based.
Series [2] has as its system Zika virus. The series is described as follows: Antiviral activity against ZIKV infected in African green monkey Vero cells assessed as inhibition of viral E protein expression incubated for 72 hrs by Western blot analysis. The format is functional, organism-based. The note with it: dose 5-20 µM.
The nature of series [3]: as §1. The format is toxicity, cell-based. The note with it: chlorocebus sabaeus, Vero cells.
The subject of series [4] is Zika virus. As to the kind of experiment: Antiviral activity against ZIKV infected in African green monkey Vero cells assessed as inhibition of viral replication at 50 uM incubated for 72 hrs by qRT-PCR analysis. The format is functional, organism-based.
The test system of series [5] is Zika virus. As to the kind of experiment: Antiviral activity against ZIKV infected in African green monkey Vero cells assessed as inhibition of viral E protein expression at 20 uM incubated for 72 hrs by immunofluorescence analysis. The format is functional, organism-based.

Take `Cc1nc2c(C(C)C)cc3c(c2o1)[C@@]1(C)CCCC(C)(C)[C@@H]1C=C3`: the Activity entry in the series on Vero is recorded as “Toxic”.

Take `CC(C)c1cc2c(c3ocnc13)[C@@]1(C)CCCC(C)(C)[C@@H]1CC2`: in the series with Vero, the Activity entry is “Toxic”.

As for `COC(C)(C)C1=Cc2ccc(C)c3c2[C@@](O)(C1=O)C(C)(C)CCC3`, the EC50 in the series with Zika virus [1] was 8 µM. Further, the inhibition entry with Zika virus [2] was “Dose-Dependent Effect”. Besides, the CC50 at 72 h in series [3] was greater than 100 µM. Also, the inhibition result with Zika virus [4] and in the series with Zika virus [5] was “Active” throughout.

For the compound `CC1=C2CCCC(C)(C)[C@@H]2CC[C@@]12C=C(C(C)C)C(=O)O2`, the Activity result in the series on Vero is “Toxic”.

For `CCc1nc2c(C(C)C)cc3c(c2o1)[C@@]1(C)CCCC(C)(C)[C@@H]1CC3`, the Activity entry in the series with Vero was “Toxic”.

On to `CO[C@@H]1CCC(C)(C)Oc2c(O)c(C(C)C)cc3ccc(C)c1c23`, for which the EC50 in the series on Zika virus [1] was 8.07 µM. For the same compound, the inhibition entry with Zika virus [2] was “Dose-Dependent Effect”. Moreover, the CC50 at 72 h in series [3] is greater than 100 µM. The inhibition result in the series with Zika virus [4] and in the series with Zika virus [5] was “Active” throughout.
